ChEMBL document CHEMBL5696442, “Discovery of type II inhibitors of TGFβ-activated kinase 1 (TAK1) and mitogen-activated protein kinase kinase kinase kinase 2 (MAP4K2)” (J Med Chem, 2015)
The source made the active and inactive calls. The calls are words filed in the database; no cut-off is given here.

Assays:
[1] = target: 5'-AMP-activated protein kinase catalytic subunit alpha-2 (Homo sapiens) (UniProt P54646); experiment: Inhibition of AMPKa2 Lys2 labeling site in human Huh-7 cell lysate at 1 uM by KiNativ Profiling analysis relative to control; format: subcellular
[2] = target: STE20/SPS1-related proline-alanine-rich protein kinase (Homo sapiens) (UniProt Q9UEW8); experiment: Inhibition of STLK3 Lys2 labeling site in human Huh-7 cells at 1 uM by KiNativ Profiling analysis relative to control; format: cell-based
[3] = target: Bone morphogenetic protein receptor type-1A (Homo sapiens) (UniProt P36894); experiment: Inhibition of BMPR1A (unknown origin) at 10 uM by Ambit Kinomescan binding assay
[4] = target: T1, Serine/threonine-protein kinase Chk1 (Homo sapiens) (UniProt O14757); experiment: Inhibition of CHEK1 (unknown origin) at 10 uM by Ambit Kinomescan binding assay
T1 sequence (whole entry): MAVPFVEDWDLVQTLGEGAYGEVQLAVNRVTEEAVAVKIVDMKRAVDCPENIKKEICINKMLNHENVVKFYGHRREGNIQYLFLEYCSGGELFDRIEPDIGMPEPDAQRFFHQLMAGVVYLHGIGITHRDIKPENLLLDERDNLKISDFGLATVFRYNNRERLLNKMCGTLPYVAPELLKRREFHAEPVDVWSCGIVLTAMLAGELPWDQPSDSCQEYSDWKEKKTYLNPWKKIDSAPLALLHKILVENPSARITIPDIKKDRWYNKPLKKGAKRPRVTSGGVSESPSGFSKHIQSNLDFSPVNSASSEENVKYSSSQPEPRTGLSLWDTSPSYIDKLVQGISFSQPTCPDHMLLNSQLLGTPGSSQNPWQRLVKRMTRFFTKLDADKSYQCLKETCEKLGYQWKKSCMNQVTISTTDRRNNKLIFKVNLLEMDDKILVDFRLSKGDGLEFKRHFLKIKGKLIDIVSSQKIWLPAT

[5] = target: Ribosomal protein S6 kinase alpha-5 (Homo sapiens) (UniProt O75582); experiment: Inhibition of N-terminal RPS6KA5 kinase domain 1 (unknown origin) at 10 uM by Ambit Kinomescan binding assay relative to control
[6] = target: T2, Phosphatidylinositol 5-phosphate 4-kinase type-2 alpha (Homo sapiens) (UniProt P48426); experiment: Inhibition of PIP5K2A LIP labeling site in human Huh-7 cells at 10 uM by KiNativ Profiling analysis relative to control; format: cell-based
T2 sequence (whole entry): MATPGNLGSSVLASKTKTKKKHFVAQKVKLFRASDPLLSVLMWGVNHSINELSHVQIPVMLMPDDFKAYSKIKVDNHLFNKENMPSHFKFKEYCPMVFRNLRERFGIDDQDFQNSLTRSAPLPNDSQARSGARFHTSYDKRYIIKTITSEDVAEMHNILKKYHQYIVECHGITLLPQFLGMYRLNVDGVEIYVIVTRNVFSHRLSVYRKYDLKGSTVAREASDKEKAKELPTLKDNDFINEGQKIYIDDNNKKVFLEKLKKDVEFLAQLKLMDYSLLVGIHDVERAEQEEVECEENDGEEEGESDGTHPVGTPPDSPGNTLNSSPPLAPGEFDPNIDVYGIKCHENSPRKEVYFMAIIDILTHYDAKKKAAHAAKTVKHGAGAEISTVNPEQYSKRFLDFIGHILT

[7] = target: Angiopoietin-1 receptor (Homo sapiens) (UniProt Q02763); experiment: Inhibition of TIE2 (unknown origin) at 10 uM by Ambit Kinomescan binding assay relative to control; values are per cent of control
[8] = system: Proto-oncogene tyrosine-protein kinase receptor Ret (Homo sapiens), P07949 [V804L]; experiment: Inhibition of RET V804L mutant (unknown origin) at 10 uM by Ambit Kinomescan binding assay relative to control; values are per cent of control
[9] = target: Mitogen-activated protein kinase 7 (Homo sapiens) (UniProt Q13164); experiment: Inhibition of ERK5 (unknown origin) at 1 uM by Ambit Kinomescan binding assay relative to control
[10] = target: Tyrosine-protein kinase SYK (Homo sapiens) (UniProt P43405); experiment: Inhibition of SYK (unknown origin) at 1 uM by Ambit Kinomescan binding assay relative to control
[11] = target: T3, Receptor-interacting serine/threonine-protein kinase 4 (Homo sapiens) (UniProt P57078); experiment: Inhibition of ANKRD3 Lys1 labeling site in human A-375 cells at 0.5 uM by KiNativ Profiling analysis relative to control; format: cell-based
T3 sequence (whole entry): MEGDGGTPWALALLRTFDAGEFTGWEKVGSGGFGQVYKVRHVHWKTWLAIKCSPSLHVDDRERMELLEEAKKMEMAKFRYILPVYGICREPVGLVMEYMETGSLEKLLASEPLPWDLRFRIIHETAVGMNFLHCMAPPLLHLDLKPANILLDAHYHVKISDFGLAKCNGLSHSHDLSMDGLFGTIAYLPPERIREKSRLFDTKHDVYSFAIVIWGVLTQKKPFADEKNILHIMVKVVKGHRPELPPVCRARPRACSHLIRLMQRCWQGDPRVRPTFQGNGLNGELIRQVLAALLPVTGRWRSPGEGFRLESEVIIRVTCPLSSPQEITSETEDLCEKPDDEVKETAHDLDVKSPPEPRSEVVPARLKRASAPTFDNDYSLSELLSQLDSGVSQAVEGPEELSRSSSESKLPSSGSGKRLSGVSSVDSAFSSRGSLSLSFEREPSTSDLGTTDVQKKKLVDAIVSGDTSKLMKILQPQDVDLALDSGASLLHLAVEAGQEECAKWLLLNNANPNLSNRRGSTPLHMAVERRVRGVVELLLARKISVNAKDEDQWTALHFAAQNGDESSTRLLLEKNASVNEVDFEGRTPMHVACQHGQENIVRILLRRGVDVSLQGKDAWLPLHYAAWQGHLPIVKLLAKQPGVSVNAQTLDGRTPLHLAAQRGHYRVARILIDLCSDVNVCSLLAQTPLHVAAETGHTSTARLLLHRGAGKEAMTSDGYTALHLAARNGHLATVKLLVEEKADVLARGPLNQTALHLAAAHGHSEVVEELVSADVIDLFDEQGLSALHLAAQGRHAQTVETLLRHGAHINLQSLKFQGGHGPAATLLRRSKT

[12] = target: DNA-PK/Ku70/Ku85 (Homo sapiens) (UniProt P78527+P12956+P13010); experiment: Inhibition of DNAPK ATP labeling site harbouring GHDEREHPFLVKGGEDLRQDQR in human A-375 cells at 0.05 uM by KiNativ Profiling analysis relative to control; format: cell-based
[13] = target: Serine/threonine-protein kinase mTOR (Homo sapiens) (UniProt P42345); experiment: Inhibition of FRAP ATP labeling site in human A-375 cells at 0.05 uM by KiNativ Profiling analysis relative to control; format: cell-based
[14] = target: Rhodopsin kinase GRK1 (Homo sapiens) (UniProt Q15835); experiment: Inhibition of GRK1 (unknown origin) at 1 uM by Ambit Kinomescan binding assay relative to control; values are per cent of control

Chain of Bone morphogenetic protein receptor type-1A (Homo sapiens) (P36894 whole entry): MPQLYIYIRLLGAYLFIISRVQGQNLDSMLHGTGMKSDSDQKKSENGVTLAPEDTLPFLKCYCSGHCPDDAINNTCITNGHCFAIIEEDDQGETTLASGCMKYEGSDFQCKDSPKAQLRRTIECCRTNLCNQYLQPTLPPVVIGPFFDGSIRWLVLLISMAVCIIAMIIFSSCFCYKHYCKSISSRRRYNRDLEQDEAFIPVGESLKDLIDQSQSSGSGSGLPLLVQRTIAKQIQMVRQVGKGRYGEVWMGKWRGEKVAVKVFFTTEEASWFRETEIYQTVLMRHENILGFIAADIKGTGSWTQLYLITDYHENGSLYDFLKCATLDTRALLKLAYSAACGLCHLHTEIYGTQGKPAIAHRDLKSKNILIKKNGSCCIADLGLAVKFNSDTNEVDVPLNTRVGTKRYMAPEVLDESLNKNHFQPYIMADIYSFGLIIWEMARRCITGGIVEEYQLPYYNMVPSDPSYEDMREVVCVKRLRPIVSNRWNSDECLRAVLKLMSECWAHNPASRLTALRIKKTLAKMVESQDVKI
Chain of Angiopoietin-1 receptor (Homo sapiens) (Q02763 whole entry): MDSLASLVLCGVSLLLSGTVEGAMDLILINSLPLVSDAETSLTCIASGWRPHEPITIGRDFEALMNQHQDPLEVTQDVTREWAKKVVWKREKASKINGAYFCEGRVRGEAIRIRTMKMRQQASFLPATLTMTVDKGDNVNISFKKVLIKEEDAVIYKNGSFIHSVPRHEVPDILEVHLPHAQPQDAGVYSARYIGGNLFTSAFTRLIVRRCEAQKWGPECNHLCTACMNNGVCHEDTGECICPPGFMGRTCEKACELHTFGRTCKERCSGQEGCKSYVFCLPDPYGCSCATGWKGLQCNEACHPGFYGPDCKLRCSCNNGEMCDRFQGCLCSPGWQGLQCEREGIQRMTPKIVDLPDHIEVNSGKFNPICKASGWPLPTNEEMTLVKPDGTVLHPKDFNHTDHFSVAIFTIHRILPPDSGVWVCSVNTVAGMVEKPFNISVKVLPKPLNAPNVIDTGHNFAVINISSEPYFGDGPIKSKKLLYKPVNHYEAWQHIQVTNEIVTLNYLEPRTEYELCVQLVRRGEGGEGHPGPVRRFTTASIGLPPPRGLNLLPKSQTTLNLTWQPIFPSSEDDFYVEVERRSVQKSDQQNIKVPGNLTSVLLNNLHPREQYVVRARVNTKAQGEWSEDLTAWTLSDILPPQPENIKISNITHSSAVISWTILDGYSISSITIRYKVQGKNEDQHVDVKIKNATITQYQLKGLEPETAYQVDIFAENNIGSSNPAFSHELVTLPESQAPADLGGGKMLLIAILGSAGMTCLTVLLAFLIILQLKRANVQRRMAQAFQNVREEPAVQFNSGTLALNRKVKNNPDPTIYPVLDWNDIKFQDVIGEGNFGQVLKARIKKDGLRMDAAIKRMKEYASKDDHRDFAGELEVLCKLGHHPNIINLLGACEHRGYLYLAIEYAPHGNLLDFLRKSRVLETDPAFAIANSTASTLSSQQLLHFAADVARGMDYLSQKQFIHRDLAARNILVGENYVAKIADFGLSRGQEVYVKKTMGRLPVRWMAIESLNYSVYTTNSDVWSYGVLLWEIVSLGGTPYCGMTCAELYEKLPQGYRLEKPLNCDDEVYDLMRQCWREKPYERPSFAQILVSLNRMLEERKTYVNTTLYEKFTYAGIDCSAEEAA
Chain of 5'-AMP-activated protein kinase catalytic subunit alpha-2 (Homo sapiens) (P54646 whole entry, looked up): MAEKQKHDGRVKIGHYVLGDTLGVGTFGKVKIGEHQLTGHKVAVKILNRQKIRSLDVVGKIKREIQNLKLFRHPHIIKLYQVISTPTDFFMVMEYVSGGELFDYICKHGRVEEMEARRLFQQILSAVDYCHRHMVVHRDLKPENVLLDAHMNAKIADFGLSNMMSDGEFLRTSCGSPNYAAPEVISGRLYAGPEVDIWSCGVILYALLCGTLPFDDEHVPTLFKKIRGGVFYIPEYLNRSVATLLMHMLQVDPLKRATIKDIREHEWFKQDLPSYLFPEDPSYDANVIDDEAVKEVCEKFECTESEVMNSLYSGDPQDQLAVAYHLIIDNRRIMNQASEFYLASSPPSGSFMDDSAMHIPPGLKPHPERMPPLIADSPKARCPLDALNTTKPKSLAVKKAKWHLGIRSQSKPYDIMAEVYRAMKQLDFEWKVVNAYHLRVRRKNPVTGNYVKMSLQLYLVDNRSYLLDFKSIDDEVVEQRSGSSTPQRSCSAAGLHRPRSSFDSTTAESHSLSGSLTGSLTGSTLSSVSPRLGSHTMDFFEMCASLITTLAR
Chain of Proto-oncogene tyrosine-protein kinase receptor Ret (Homo sapiens), P07949 [V804L] (P07949 whole entry V804L): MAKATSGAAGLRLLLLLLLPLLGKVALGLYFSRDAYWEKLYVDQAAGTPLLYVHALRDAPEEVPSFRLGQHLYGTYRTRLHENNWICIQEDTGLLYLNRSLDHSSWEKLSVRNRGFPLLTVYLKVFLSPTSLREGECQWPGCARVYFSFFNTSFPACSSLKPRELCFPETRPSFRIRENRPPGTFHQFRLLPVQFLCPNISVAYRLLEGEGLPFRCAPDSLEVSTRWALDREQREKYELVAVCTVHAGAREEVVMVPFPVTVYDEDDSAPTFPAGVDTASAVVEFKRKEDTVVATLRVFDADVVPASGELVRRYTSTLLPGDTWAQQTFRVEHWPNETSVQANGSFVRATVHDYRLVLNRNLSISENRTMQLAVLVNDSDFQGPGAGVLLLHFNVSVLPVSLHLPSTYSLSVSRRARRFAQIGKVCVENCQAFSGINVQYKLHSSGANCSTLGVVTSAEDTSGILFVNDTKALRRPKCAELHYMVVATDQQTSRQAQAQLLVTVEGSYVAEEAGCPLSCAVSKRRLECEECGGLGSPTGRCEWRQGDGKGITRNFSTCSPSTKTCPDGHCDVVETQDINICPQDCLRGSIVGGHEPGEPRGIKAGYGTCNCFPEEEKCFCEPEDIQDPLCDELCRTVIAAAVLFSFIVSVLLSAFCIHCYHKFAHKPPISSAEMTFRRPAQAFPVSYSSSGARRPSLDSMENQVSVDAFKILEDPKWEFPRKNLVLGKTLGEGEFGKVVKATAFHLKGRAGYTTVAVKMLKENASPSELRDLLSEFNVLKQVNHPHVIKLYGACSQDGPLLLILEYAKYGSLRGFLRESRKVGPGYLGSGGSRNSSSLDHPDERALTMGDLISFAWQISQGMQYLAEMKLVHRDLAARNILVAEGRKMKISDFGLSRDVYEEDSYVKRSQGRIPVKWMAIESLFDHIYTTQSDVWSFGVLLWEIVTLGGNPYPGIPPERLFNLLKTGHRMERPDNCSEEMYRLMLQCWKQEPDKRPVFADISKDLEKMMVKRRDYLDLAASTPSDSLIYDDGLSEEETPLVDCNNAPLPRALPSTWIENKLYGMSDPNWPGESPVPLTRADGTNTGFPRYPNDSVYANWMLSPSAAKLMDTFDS
Chain of Mitogen-activated protein kinase 7 (Homo sapiens) (Q13164 2-816 limits assumed): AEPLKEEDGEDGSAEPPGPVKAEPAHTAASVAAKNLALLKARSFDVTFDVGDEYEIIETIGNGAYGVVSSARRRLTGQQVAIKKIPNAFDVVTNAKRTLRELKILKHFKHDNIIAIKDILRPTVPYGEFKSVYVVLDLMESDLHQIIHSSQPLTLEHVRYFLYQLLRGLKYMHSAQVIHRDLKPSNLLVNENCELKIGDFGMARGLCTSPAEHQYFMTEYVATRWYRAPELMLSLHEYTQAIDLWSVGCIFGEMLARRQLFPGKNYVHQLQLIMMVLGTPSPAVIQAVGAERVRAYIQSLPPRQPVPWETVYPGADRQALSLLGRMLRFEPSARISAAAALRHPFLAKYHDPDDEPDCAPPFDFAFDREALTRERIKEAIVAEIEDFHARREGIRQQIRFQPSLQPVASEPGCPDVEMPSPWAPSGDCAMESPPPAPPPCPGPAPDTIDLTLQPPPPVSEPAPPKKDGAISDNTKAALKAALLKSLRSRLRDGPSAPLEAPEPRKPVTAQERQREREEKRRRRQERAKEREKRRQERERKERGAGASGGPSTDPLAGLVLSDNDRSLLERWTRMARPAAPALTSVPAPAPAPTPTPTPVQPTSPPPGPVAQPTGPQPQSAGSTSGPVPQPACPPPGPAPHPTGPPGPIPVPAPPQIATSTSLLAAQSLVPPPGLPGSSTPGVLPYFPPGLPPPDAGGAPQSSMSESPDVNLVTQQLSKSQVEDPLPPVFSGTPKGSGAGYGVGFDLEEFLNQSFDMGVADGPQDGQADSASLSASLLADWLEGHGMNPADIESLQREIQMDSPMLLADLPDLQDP
Chain of Ribosomal protein S6 kinase alpha-5 (Homo sapiens) (O75582 whole entry, looked up, the tested form may be a part): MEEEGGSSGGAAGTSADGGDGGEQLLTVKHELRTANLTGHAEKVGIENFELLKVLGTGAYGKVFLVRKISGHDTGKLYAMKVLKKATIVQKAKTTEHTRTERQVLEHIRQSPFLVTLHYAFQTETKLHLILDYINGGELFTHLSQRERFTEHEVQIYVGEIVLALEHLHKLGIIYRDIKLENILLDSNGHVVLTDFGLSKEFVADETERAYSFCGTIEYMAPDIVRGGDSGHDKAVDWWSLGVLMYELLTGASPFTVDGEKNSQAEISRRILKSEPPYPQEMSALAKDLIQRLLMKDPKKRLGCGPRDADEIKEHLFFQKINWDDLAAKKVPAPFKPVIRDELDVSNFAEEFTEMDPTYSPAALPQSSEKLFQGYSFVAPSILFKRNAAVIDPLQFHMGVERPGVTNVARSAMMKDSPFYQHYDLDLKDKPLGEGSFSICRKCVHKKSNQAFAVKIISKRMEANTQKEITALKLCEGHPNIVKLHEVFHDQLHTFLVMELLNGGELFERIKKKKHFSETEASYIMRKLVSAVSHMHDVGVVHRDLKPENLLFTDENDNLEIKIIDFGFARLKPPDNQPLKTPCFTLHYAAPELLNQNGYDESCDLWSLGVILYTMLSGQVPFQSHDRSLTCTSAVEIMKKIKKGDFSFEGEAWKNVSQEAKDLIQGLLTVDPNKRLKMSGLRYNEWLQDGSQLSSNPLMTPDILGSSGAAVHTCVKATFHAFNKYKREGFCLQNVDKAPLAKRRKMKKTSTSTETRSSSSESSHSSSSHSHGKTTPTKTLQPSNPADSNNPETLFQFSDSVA

In the case of `CNc1cc(Oc2cc(C(=O)Nc3cc(N4CCN(C)CC4)cc(C(F)(F)F)c3)ccc2C)ncn1`, the inhibition [1] is reported as 0.5% and the inhibition [2] is reported as 57.3%.

With `CCN1CCN(Cc2ccc(NC(=O)c3ccc(C)c(Oc4ccnc5[nH]ccc45)c3)cc2C(F)(F)F)CC1` the inhibition [3] was “inactive”, the inhibition [4] was “inactive” and the inhibition [5] was “inactive”. For the same molecule, the inhibition [6] was 0%, the residual activity [7] was 0% and the residual activity [8] was 0.8%.

With `CCN1CCN(Cc2ccc(NC(=O)c3ccc(C)c(/C=C/c4cnc5[nH]ccc5c4OC)c3)cc2C(F)(F)F)CC1` the inhibition [9] was 83%, the inhibition [10] was 18% and the inhibition [11] was 23.7%. For the same molecule, the inhibition [12] was -9.6%, the inhibition [13] was -7.6% and the residual activity [14] was 100%.
